Data: ChEMBL document CHEMBL4480431, “Design, synthesis and biological evaluation of imidazo[1,5-a]pyrazin-8(7H)-one derivatives as BRD9 inhibitors” (Bioorg Med Chem, 2019)

What was measured:
[1] = biological target: T1, Bromodomain-containing protein 9 (Homo sapiens, UniProt Q9H8M2); experiment: Inhibition of BRD9 (unknown origin) using H4 peptide as substrate preincubated for 15 mins followed by substrate addition and measured after 60 mins by Alphascreen assay
T1 sequence (Q9H8M2 whole entry): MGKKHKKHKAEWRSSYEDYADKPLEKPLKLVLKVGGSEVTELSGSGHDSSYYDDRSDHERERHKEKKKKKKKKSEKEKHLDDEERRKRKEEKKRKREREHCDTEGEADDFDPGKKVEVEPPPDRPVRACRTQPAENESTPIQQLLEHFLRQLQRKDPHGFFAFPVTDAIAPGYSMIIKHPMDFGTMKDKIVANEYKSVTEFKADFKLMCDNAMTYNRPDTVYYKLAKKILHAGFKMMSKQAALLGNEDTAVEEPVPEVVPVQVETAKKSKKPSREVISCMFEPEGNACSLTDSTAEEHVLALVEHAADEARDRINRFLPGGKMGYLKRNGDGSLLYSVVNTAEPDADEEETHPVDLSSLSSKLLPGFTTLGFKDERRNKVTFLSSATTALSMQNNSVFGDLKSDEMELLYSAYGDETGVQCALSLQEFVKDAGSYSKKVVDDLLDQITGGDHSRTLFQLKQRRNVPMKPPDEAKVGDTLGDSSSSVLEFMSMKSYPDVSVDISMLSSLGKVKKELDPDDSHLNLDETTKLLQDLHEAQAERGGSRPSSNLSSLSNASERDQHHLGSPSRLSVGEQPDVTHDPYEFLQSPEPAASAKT

[2] = biological target: T2, Bromodomain-containing protein 9 (Homo sapiens) (UniProt Q9H8M2); experiment: Inhibition of BRD9 (unknown origin) at 1 uM using H4 peptide as substrate preincubated for 15 mins followed by substrate addition and measured after 60 mins by Alphascreen assay relative to control
T2 sequence (whole entry): T1 sequence (Q9H8M2 whole entry)

[3] = biological target: Bromodomain-containing protein 4 (Homo sapiens) (UniProt O60885); experiment: Inhibition of recombinant human BRD4 (44 to 168) residues expressed in Escherichia coli at 1 uM using H4 peptide as substrate preincubated for 15 mins followed by substrate addition and measured after 60 mins by Alphascreen assay relative to control
EOL1 = experiment: Antiproliferative activity against human EOL-1 cells; format: functional, cell-based
A549 = experiment: Antiproliferative activity against human A549 cells; format: functional, cell-based

## CCn1cc(-c2ccc(C(=O)N3CCNCC3)c(Cl)c2)n2cncc2c1=O
[1]
  IC50: 0.802 µM
[2]
  inhibition: 83%

## CCS(=O)(=O)Nc1ccc(Oc2ccc(F)cc2)c(-c2cn(C)c(=O)c3cncn23)c1
[3]
  inhibition: 100%

## C/C=C/Cn1cc(-c2ccc(C(=O)N3CCN(S(C)(=O)=O)CC3)c(F)c2)n2cncc2c1=O
[1]
  IC50: 0.652 µM
[2]
  inhibition: 71%

## Cn1cc(-c2ccccc2)n2cncc2c1=O
[1]
  IC50: 7.21 µM
[2]
  inhibition: 7%

## C/C=C/Cn1cc(-c2ccc(C(=O)N3CCOCC3)c(Cl)c2)n2cncc2c1=O
[1]
  IC50: 0.465 µM
[2]
  inhibition: 91%
EOL1
  IC50: 8.17 µM
A549
  IC50: > 10 µM
[3]
  inhibition: -2%

## Cn1cc(-c2ccc(C(=O)N3CCOCC3)c(Cl)c2)n2cncc2c1=O
[1]
  IC50: 1.5 µM
[2]
  inhibition: 27%

## C/C=C/Cn1cc(-c2ccc(C(=O)N3CCN(S(C)(=O)=O)CC3)c(Cl)c2)n2cncc2c1=O
[1]
  IC50: 0.103 µM
[2]
  inhibition: 94%
EOL1
  IC50: 2.29 µM
A549
  IC50: 6.63 µM
[3]
  inhibition: -5%

## CCCCn1cc(-c2ccc(C(=O)N3CCOCC3)c(Cl)c2)n2cncc2c1=O
[1]
  IC50: 0.827 µM
[2]
  inhibition: 48%

## CCCCn1cc(-c2ccc(C(=O)NC3CCS(=O)(=O)CC3)c(Cl)c2)n2cncc2c1=O
[2]
  inhibition: 21%

## COc1cccc(-c2cn(C)c(=O)c3cncn23)c1
[1]
  IC50: 3.01 µM
[2]
  inhibition: 16%

## CCCn1cc(-c2ccc(C(=O)N3CCNCC3)c(Cl)c2)n2cncc2c1=O
[1]
  IC50: 0.93 µM
[2]
  inhibition: 86%

## C/C=C/Cn1cc(-c2ccc(C(=O)N3CCC(C(N)=O)CC3)c(Cl)c2)n2cncc2c1=O
[1]
  IC50: 0.262 µM
[2]
  inhibition: 94%
EOL1
  IC50: 3.42 µM
A549
  IC50: 7.15 µM
[3]
  inhibition: -5%

## C/C=C/Cn1cc(-c2ccc(C(=O)N3CCN(C)CC3)c(Cl)c2)n2cncc2c1=O
[1]
  IC50: 0.557 µM
[2]
  inhibition: 80%
EOL1
  IC50: 7.03 µM
A549
  IC50: > 10 µM
[3]
  inhibition: -3%

## Cn1cc(-c2ccc(C(=O)N3CCOCC3)cc2)n2cncc2c1=O
[1]
  IC50: 2.33 µM
[2]
  inhibition: 18%

## C/C=C/Cn1cc(-c2ccc(C(=O)N3CCOCC3)c(F)c2)n2cncc2c1=O
[1]
  IC50: 0.967 µM
[2]
  inhibition: 38%

## C/C=C/Cn1cc(-c2ccc(C(=O)N3CCOCC3)cc2Cl)n2cncc2c1=O
[1]
  IC50: 0.763 µM
[2]
  inhibition: 42%

## C/C=C/Cn1cc(-c2ccc(C(=O)NC3CCS(=O)(=O)CC3)c(Cl)c2)n2cncc2c1=O
[1]
  IC50: 0.48 µM
[2]
  inhibition: 100%
EOL1
  IC50: 5.34 µM
A549
  IC50: > 10 µM
[3]
  inhibition: -5%

## CCOC(=O)Nc1cc(-c2ccc(C)c(NS(C)(=O)=O)c2)nn2c(C)nnc12
[2]
  inhibition: 87 to 90%

## CCCn1cc(-c2ccc(C(=O)NC3CCS(=O)(=O)CC3)c(Cl)c2)n2cncc2c1=O
[2]
  inhibition: 23%

## C/C=C/Cn1cc(-c2ccc(C(=O)N3CCNCC3)c(Cl)c2)n2cncc2c1=O
[1]
  IC50: 0.035 µM
[2]
  inhibition: 99%
EOL1
  IC50: 1.76 µM
A549
  IC50: 6.12 µM
[3]
  inhibition: -6%

## CCn1cc(-c2ccc(C(=O)N3CCOCC3)c(Cl)c2)n2cncc2c1=O
[2]
  inhibition: 5%

## CCn1cc(-c2ccc(C(=O)NC3CCS(=O)(=O)CC3)c(Cl)c2)n2cncc2c1=O
[1]
  IC50: 1.02 µM
[2]
  inhibition: 75%

## CCCCn1cc(-c2ccc(C(=O)N3CCNCC3)c(Cl)c2)n2cncc2c1=O
[1]
  IC50: 0.73 µM
[2]
  inhibition: 68%

## C/C=C/Cn1cc(-c2ccc(C(=O)N3CCN(S(C)(=O)=O)CC3)cc2Cl)n2cncc2c1=O
[1]
  IC50: 0.84 µM
[2]
  inhibition: 52%

## C/C=C/Cn1cc(-c2ccc(C(=O)N3CCCC3)c(Cl)c2)n2cncc2c1=O
[1]
  IC50: 0.438 µM
[2]
  inhibition: 87%
EOL1
  IC50: 5.82 µM
A549
  IC50: 8.23 µM
[3]
  inhibition: -4%

## Cn1cc(-c2cccc(C(F)(F)F)c2)n2cncc2c1=O
[1]
  IC50: 7.41 µM
[2]
  inhibition: 6%
